Drawing on patent US8148391B2 (Cephalon, Inc., priority 2006, dated 2012), this text covers IC50 for 18 compounds.

The structures appear in SMILES notation.

The target of test [1] is T1, baculovirus-expressed ALK (Homo sapiens, UniProt Q9UM73).
T1 construct: host or cells: baculovirus expression system
Kind of test: ALK Kinase Assay (ELISA-type, time-resolved fluorescence). The test is classed as biochemical. To be noted: ALK kinase inhibition, 1 μM ATP (Km level); read-out: ALK Activity. A digest of the protocol:
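Wells were coated with phospholipase C-γ at 10 μg/mL in Tris-buffered saline. Adding 30 ng/ml enzyme started the reaction, which ran at 37° C for 15 minutes before Eu-N1 PT66 antibody detection. Percent inhibition versus log10 concentration gave IC50 by variable-slope fit.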
(In an ELISA, binding on a coated surface is turned into a signal by an enzyme label.)

Test [2] has as its target T2, c-Met (cytoplasmic domain) (Homo sapiens, UniProt P08581).
T2 construct: 10 ng/mL c-Met (cytoplasmic domain, Invitrogen Corporation #PV3143); purchased Invitrogen Corporation PV3143
Description: c-Met Kinase Assay (same methods as for ALK, with modifications). The class given is biochemical. Conditions: c-Met kinase inhibition, 1 μM ATP (Km level); read-out: cMet Activity. In a few lines:
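IC50 values were fitted by variable-slope sigmoidal regression of percent inhibition against log compound concentration. Phosphorylation was read with Eu-N1 PT66 antibody after a 15 min, 37 °C reaction. The reaction was initiated with 10 ng/mL c-Met cytoplasmic domain on wells coated with 10 μg/mL PLC-γ in TBS.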

T2 sequence (P08581 956-1390 limits assumed): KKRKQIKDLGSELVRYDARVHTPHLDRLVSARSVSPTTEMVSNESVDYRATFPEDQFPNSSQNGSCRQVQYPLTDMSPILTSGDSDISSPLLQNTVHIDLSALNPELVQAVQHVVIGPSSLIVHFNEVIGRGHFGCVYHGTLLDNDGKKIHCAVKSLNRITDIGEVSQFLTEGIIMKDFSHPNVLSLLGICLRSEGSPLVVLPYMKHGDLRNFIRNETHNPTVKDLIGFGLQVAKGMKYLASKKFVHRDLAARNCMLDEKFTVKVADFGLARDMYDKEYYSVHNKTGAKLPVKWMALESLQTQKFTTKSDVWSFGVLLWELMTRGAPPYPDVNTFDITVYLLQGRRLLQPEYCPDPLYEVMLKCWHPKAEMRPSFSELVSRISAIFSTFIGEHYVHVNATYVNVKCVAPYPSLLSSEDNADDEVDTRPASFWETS
T1 sequence (Q9UM73 19-1620): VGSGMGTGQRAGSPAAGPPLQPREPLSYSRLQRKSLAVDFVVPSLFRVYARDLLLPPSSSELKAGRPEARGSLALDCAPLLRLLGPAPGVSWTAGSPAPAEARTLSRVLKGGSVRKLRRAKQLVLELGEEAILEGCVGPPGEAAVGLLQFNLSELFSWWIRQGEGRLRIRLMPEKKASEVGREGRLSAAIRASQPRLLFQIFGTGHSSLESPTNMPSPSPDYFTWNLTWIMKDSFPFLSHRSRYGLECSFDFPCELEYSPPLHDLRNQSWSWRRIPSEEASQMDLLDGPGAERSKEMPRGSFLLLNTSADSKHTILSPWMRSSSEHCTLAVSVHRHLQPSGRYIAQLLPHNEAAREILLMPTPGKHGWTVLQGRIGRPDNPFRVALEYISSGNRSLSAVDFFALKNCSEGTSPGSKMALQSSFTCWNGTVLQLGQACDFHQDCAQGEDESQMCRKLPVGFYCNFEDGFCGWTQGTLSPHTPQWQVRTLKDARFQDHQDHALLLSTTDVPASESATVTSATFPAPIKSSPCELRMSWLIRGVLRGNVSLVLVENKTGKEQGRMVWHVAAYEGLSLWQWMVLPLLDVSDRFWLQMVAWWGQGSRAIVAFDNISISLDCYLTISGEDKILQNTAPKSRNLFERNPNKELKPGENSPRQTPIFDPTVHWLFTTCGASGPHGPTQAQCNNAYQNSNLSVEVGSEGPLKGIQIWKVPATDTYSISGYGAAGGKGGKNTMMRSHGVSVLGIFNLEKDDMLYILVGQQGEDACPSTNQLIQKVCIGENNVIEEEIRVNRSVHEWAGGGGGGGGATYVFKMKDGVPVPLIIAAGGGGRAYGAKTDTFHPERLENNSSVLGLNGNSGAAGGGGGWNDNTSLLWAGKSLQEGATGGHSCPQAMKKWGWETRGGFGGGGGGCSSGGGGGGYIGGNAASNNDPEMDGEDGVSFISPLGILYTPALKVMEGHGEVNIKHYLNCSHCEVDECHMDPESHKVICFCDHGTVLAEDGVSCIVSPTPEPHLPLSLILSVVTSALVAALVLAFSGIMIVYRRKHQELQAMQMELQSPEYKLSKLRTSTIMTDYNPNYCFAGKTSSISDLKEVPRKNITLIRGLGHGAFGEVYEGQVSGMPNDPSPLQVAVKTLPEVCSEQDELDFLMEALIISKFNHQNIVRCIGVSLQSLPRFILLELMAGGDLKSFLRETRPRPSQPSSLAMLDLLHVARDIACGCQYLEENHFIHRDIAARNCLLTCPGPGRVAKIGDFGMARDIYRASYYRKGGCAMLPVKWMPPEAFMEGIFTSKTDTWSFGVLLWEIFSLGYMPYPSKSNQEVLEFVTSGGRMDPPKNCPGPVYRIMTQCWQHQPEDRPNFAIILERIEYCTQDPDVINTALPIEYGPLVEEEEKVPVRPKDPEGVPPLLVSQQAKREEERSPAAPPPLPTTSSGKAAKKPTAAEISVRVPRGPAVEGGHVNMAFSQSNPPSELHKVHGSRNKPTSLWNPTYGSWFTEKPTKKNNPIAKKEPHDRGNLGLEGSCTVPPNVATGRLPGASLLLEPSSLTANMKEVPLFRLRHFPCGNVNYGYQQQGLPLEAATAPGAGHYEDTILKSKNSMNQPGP

For `CS(=O)(=O)N[C@@H]1CCCC[C@H]1Nc1nc(Nc2ccc3c(c2)C2CCC3CNC2)ncc1Cl` (stereo partly drawn) [Example 293, N-{(1R,2R)-2-[2-(10-Aza-tricyclo[6.3.2.0*2,7*]trideca-2,4,6-trien-4-ylamino)-5-chloro-pyrimidin-4-ylamino]-cyclohexyl}-methanesulfonamide], the IC50 was less than 0.1 µM in test [1] and 1 to 10 µM in test [2].
For `CS(=O)(=O)N[C@@H]1CCCC[C@H]1Nc1nc(Nc2ccc3c(c2)C2CCC3CN(S(C)(=O)=O)C2)ncc1Cl` (stereo partly drawn) [Example 294, N-{(1R,2R)-2-[5-Chloro-2-(10-methanesulfonyl-10-aza-tricyclo[6.3.2.0*2,7*]trideca-2,4,6-trien-4-ylamino)-pyrimidin-4-ylamino]-cyclohexyl}-methanesulfonamide], the IC50 is less than 0.1 µM in test [1] and 0.1 to 1 µM in test [2].
In the same order, the values of `CC(=O)N1CC2CCC(C1)c1cc(Nc3ncc(Cl)c(N[C@@H]4CCCC[C@H]4NS(C)(=O)=O)n3)ccc12` (stereo partly drawn) [Example 295, N-{(1R,2R)-2-[2-(10-Acetyl-10-aza-tricyclo[6.3.2.0*2,7*]trideca-2,4,6-trien-4-ylamino)-5-chloro-pyrimidin-4-ylamino]-cyclohexyl}-methanesulfonamide] are less than 0.1 µM and 0.1 to 1 µM.
The matching figures for `CC(C)N1CC2CCC(C1)c1cc(Nc3ncc(Cl)c(N[C@@H]4CCCC[C@H]4NS(C)(=O)=O)n3)ccc12` (stereo partly drawn) [Example 296, N-{(1R,2R)-2-[5-Chloro-2-(10-Isopropyl-10-aza-tricyclo[6.3.2.0*2,7*]trideca-2,4,6-trien-4-ylamino)-pyrimidin-4-ylamino]-cyclohexyl}-methanesulfonamide]: less than 0.1 µM and 0.1 to 1 µM.
The matching figures for `CNC(=O)c1ccccc1Nc1nc(Nc2ccc3c(c2Br)C2CCC3CN(C(=O)C(F)(F)F)C2)ncc1Cl` (stereo not drawn) [Example 297, 2-{2-[3-Bromo-10-(2,2,2-trifluoro-acetyl)-10-aza-tricyclo[6.3.2.0*2,7*]trideca-2,4,6-trien-4-ylamino]-5-chloro-pyrimidin-4-ylamino}-N-methyl-benzamide]: 0.1 to 1 µM and greater than 10 µM.
As for `CCN1CCc2ccc(Nc3ncc(Cl)c(NCCNS(C)(=O)=O)n3)cc2CC1` [Example 298, N-{2-[5-Chloro-2-(3-ethyl-2,3,4,5-tetrahydro-1H-benzo[d]azepin-7-ylamino)-pyrimidin-4-ylamino]-ethyl}-methanesulfonamide], the IC50 in test [1] is 0.1 to 1 µM; in test [2], 1 to 10 µM.
The matching figures for `COCCN1CCc2ccc(Nc3ncc(Cl)c(NCCNS(C)(=O)=O)n3)cc2CC1` [Example 299, N-(2-{5-Chloro-2-[3-(2-methoxy-ethyl)-2,3,4,5-tetrahydro-1H-benzo[d]azepin-7-ylamino]-pyrimidin-4-ylamino}-ethyl)-methanesulfonamide]: 0.1 to 1 µM and 1 to 10 µM.
The matching figures for `CCN1CCc2ccc(Nc3ncc(Cl)c(NCC(C)NS(C)(=O)=O)n3)cc2CC1` (stereo not drawn) [Example 300, N-{2-[5-Chloro-2-(3-ethyl-2,3,4,5-tetrahydro-1H-benzo[d]azepin-7-ylamino)-pyrimidin-4-ylamino]-1-methyl-ethyl}-methanesulfonamide]: 0.1 to 1 µM and 1 to 10 µM.
The matching figures for `COCCN1CCc2ccc(Nc3ncc(Cl)c(NCC(C)NS(C)(=O)=O)n3)cc2CC1` (stereo not drawn) [Example 301, N-(2-{5-Chloro-2-[3-(2-methoxy-ethyl)-2,3,4,5-tetrahydro-1H-benzo[d]azepin-7-ylamino]-pyrimidin-4-ylamino}-1-methyl-ethyl)-methanesulfonamide]: 0.1 to 1 µM and 1 to 10 µM.
As to `CCN1CCc2ccc(Nc3ncc(Cl)c(NC(C)CNS(C)(=O)=O)n3)cc2CC1` (stereo not drawn) [Example 302, N-{2-[5-Chloro-2-(3-ethyl-2,3,4,5-tetrahydro-1H-benzo[d]azepin-7-ylamino)-pyrimidin-4-ylamino]-propyl}-methanesulfonamide], the IC50 in test [1] was less than 0.1 µM; in test [2] it was 1 to 10 µM.
In the same order, the values of `COCCN1CCc2ccc(Nc3ncc(Cl)c(NC(C)CNS(C)(=O)=O)n3)cc2CC1` (stereo not drawn) [Example 303, N-(2-{5-Chloro-2-[3-(2-methoxy-ethyl)-2,3,4,5-tetrahydro-1H-benzo[d]azepin-7-ylamino]-pyrimidin-4-ylamino}-propyl)-methanesulfonamide] are 0.1 to 1 µM and 1 to 10 µM.
The matching figures for `CCN1CCc2ccc(Nc3ncc(Cl)c(NCC(C)(C)NS(C)(=O)=O)n3)cc2CC1` [Example 304, N-{2-[5-Chloro-2-(3-ethyl-2,3,4,5-tetrahydro-1H-benzo[d]azepin-7-ylamino)-pyrimidin-4-ylamino]-1,1-dimethyl-ethyl}-methanesulfonamide]: 0.1 to 1 µM and 1 to 10 µM.
`COCCN1CCc2ccc(Nc3ncc(Cl)c(NCC(C)(C)NS(C)(=O)=O)n3)cc2CC1` [Example 305, N-(2-{5-Chloro-2-[3-(2-methoxy-ethyl)-2,3,4,5-tetrahydro-1H-benzo[d]azepin-7-ylamino]-pyrimidin-4-ylamino}-1,1-dimethyl-ethyl)-methanesulfonamide]: the IC50 is 0.1 to 1 µM in test [1] and greater than 10 µM in test [2].
In the case of `COCCN1CCc2ccc(Nc3ncc(Cl)c(NC(C)(C)CNS(C)(=O)=O)n3)cc2CC1` [Example 306, N-(2-{5-Chloro-2-[3-(2-methoxy-ethyl)-2,3,4,5-tetrahydro-1H-benzo[d]azepin-7-ylamino]-pyrimidin-4-ylamino}-2-methyl-propyl)-methanesulfonamide], the IC50 in test [1] was 0.1 to 1 µM; in test [2], greater than 10 µM.
Turning to `CCN1CCc2ccc(Nc3ncc(Cl)c(NC(C)(C)CNS(C)(=O)=O)n3)cc2CC1` [Example 307, N-{2-[5-Chloro-2-(3-ethyl-2,3,4,5-tetrahydro-1H-benzo[d]azepin-7-ylamino)-pyrimidin-4-ylamino]-2-methyl-propyl}-methanesulfonamide], the IC50 in test [1] is 1 to 10 µM; in test [2], greater than 10 µM.
In the same order, the values of `CNC(=O)c1cc(C)ccc1Nc1nc(Nc2ccc3c(c2)CCN(CCOC)CC3)ncc1Cl` [Example 308, 2-{5-Chloro-2-[3-(2-methoxy-ethyl)-2,3,4,5-tetrahydro-1H-benzo[d]azepin-7-ylamino]-pyrimidin-4-ylamino}-5,N-dimethyl-benzamide] are less than 0.1 µM and less than 0.1 µM.
In the same order, the values of `COCCN1CCc2ccc(Nc3ncc(Cl)c(Nc4ccc(N5CCOCC5)cc4OC)n3)cc2CC1` [Example 309, 5-Chloro-N*2*-[3-(2-methoxy-ethyl)-2,3,4,5-tetrahydro-1H-benzo[d]azepin-7-yl]-N*4*-(2-methoxy-4-morpholin-4-yl-phenyl)-pyrimidine-2,4-diamine] are less than 0.1 µM and 0.1 to 1 µM.
For `COCCN1CCc2ccc(Nc3ncc(Cl)c(NC4C5C=CC(C5)C4C(N)=O)n3)cc2CC1` (stereo not drawn) [Example 310, (2-exo,3-exo)-3-{5-Chloro-2-[3-(2-methoxy-ethyl)-2,3,4,5-tetrahydro-1H-benzo[d]azepin-7-ylamino]-pyrimidin-4-ylamino}-bicyclo[2.2.1]hept-5-ene-2-carboxylic acid amide], the IC50 in test [1] is less than 0.1 µM; in test [2], 0.1 to 1 µM.
